Assay results: patent publication US11826448B2, “Zinc-arginine-chloride complex” (Colgate-Palmolive Company, priority 2018, dated 2023)

Test system: keratinocyte cell line (Hacat)
Assay: Wound healing efficacy: scratch assay on a keratinocyte monolayer culture
Assay type: cell-based
Method: Wound healing efficacy is determined by incubating a monolayer cell culture with ZBA.
Briefly, a keratinocyte cell line (Hacat) was cultured with full confluency in a 24 well plate. The cells are then scratched horizontally and vertically with a pipet tips to generate a wound. The cells are washed twice with 1 mL of PBS buffer, then full culture medium (supplemented with 10% FBS and 1% antibiotic) is added to the scratched cells. The ZBA solution obtained from Example 1 is diluted with full culture medium at a concentration of 5 ppm or 50 ppm. Culture wells are incubated at 37° C. at 5% CO2 for up to 72 hours with either the ZBA medium mixture or with medium alone. The area of the scratches is then compared by light microscopy at different time points up to 72 hrs.

[1] = ZBA solution diluted in full culture medium at 5 ppm or 50 ppm, 37° C., 5% CO2, up to 72 hours, light microscopy

In the case of [Zn(Arginine)2Cl]^+Cl^− [ZBA], the “cell migration into the scratch wound compared to medium alone” value [1] is reported as “greater cell migration”, the “cell proliferation compared to medium alone” value [1] is reported as “faster proliferation” and the “morphology of the cells adjacent to the wound” value (in the presence of ZBA, up to 72 hours) is reported as “improved”.
